These results are taken from US7459532B2, “Variants of the TRP channel family member, LTRPC3G” (Bristol-Myers Squibb Company, priority 2003, dated 2008).

“Also recorded” adds a separate entry of the source.

One assay has as its target T1, LTRPC3 (Homo sapiens, UniProt Q9HCF6, R1695Q).
T1 construct: the complete open reading frame of LTRPC3 with a C-terminal HA tag was transiently transfected into HEK 293 cells; expressed in transfected cells; host or cells: HEK 293 (transient transfection, vector pcDNA3.1/Hygro-LTRPC3-HA)
Nature of the assay: FLIPR Fluo-4 Ca^2+ entry in LTRPC3-transfected HEK 293 cells. The following applies: for block of LTRPC3 Ca^2+ conductance/currents (in words): 1 mM Ca^2+ solution, addition of 10 mM Ca^2+; for block of LTRPC3 Ca^2+ currents: pre-treatment with 100 μM, stimulated by adding 10 mM Ca^2+. The format is cell-based. The protocol: (§1) […] (A), or 50 μM carbachol (B) was first added to LTRPC3 variant expressing HEK 293 cells in the absence of external Ca^2+. After 9 minutes, 2 mM Ca^2+ solution was added to the cell medium at the indicated times. Currents for vector transfected HEK 293 cells, and LTRPC3 variant expressing HEK 293 cells are labeled accordingly. […] Cells loaded with Fluo-4 were incubated in 1 mM Ca^2+ solution and treated with 100 μM of La^3+ (“w/La^3+”), Gd^3+ (“w/Gd^3+”) or without blockers (“w/o blocker”) for 10 min prior to the addition of 10 mM Ca^2+ to the cell medium as indicated. Curves represent averages of three independent experiments, each involving at least 8 wells per condition. Physiometric methods were performed as described in Example 7 herein.
(§2) Panels A, C and E show results obtained for vector-transfected cells, while Panels B, D and F show results obtained for TRPM3-transfected cells. […] Cells loaded with Fluo-4 were incubated in 1 mM Ca^2+ solution and treated with 100 μM of Gd^3+ (red) or without blockers (black) for 10 min prior to the addition of 10 mM Ca^2+ to the bath solution as indicated. […] Cells loaded with Fluo-4 were incubated in a nominally Ca^2+-free media and treated without blockers (black) or with 100 μM of Gd^3+ (red) for 10 min prior to the addition of 2 μM TG (Panels C and D, first arrow) or 50 μM CCh (Panels E and F, first arrow), Ca^2+ entry was stimulated by the bath addition of 10 mM Ca^2+ (second arrow). Representative traces from one of three independent experiments are shown; each trace is the mean of 12 wells per condition. Physiometric methods were performed as described in Example 10 herein.
Moreover, physiometric studies have shown that LTRPC3 is a functional Ca^2+ permeable channel (see FIGS. 18 and 19, and Example 7). LTRPC3g function was assessed using a Fluorometric Imaging Plate Reader (FLIPR™) that measures real-time intracellular fluorescence changes. Cells transiently transfected with vector or LTRPC3-HA were loaded with the cytoplasmic Ca^2+ indicator Fluoro-4 in a 1 mM Ca^2+ solution. […] The non-transfected cells were indistinguishable from the vector-transfected cells (data not shown). Therefore, LTRPC3 is a constitutively active channel capable of mediating Ca^2+ influx.
The lanthanides, gadolinium (Gd^3+) and lanthanum (La^3+), are noneselective Ca^2+-permeable channel blockers, often used as part of the characterization of overexpressed TRP channels. […] In the presence of 1 mM Ca^2+ in which endogenous SOCs is minimally activated (FIG. 18A), pre-treatment with 100 μM of La^3+ and Gd^3+ blocked LTRPC3 Ca^2+ currents, stimulated by adding 10 mM Ca^2+, by 67 and 39%, respectively.
Additional experiments were performed to further confirm the Ca^2+ store-depleted activation of LTRPC3 using Gd^3+. The effects of 100 μM Gd^3+ on Ca^2+ permeability were tested in vector- and LTRPC3-transfected cells. […] In contrast, 100 μM Gd^3+ inhibited Ca^2+ entry, induced by adding 10 mM Ca^2+, by 53% in LTRPC3-transfected cells (see FIG. 22B). Gd^3+ reduced fluorescence units in vector-transfected cells from 1470±140 to −58±8 and in LTRPC3-transfected cells from 6000±322 to 2080±199 (n=12). Fluorescence values were measured 150 seconds after adding 10 mM Ca^2+ and percent blockade was calculated as 1 minus FLTRPC3-FVector in the presence of Gd^3+ divided by FLTRPC3-FVector without blocker. The effects of Gd^3+ on LTRPC3-mediated Ca^2+ entry, induced by 10 mM Ca^2+, in the presence of thapsigargin or carbachol was also examined. Cells were incubated in nominally Ca^2+-free medium for thapsigargin and carbachol experiments. Gd^3+ inhibited Ca^2+ entry by 51% after depletion of intracellular stores with thapsigargin (see FIG. 22B). Gd^3+ reduced peak fluorescence after 10 mM Ca^2+ addition in vector-transfected cells from 26444±2410 to 1316±60 and in LTRPC3-transfected cells from 37676±2425 to 6783±250 (see FIGS. 22C and D, respectively; n=12). […]

The subject of assay [1] is endogenous Ca^2+ entry pathways present in HEK 293 cells. Nature of the assay: FLIPR Fluo-4 Ca^2+ entry in vector-transfected HEK 293 cells. The following applies: 100 μM. The format is cell-based. Here is the method:
as §2
To further address the mechanism of LTRPC3-mediated Ca^2+ entry, similar Ca^2+ addition experiments were performed on transfected cells incubated (˜30 min) in a nominally Ca^2+-free solution. Previous studies have shown that lowering extracellular Ca^2+ concentration below physiological levels can deplete intracellular Ca^2+ stores in many cell types including HEK 293 (EMBO J. 17, 4274-4282, (1998)). Incubating vector-transfected HEK 293 cells in a nominally Ca^2+-free solution gave rise to Ca^2+ entry that was dependent on the concentration of Ca^2+ added to the buffers, indicating Ca^2+ influx was mediated through endogenous SOCs in HEK293 cells (FIG. 18, left panels). In LTRPC3 cells, the Ca^2+ transients triggered by similar Ca^2+ treatment were much larger (FIG. 18, right panels).
Additional experiments were performed to further confirm the Ca^2+ store-depleted activation of LTRPC3 using Gd^3+. The effects of 100 μM Gd^3+ on Ca^2+ permeability were tested in vector- and LTRPC3-transfected cells. […] In contrast, 100 μM Gd^3+ inhibited Ca^2+ entry, induced by adding 10 mM Ca^2+, by 53% in LTRPC3-transfected cells (see FIG. 22B). Gd^3+ reduced fluorescence units in vector-transfected cells from 1470±140 to −58±8 and in LTRPC3-transfected cells from 6000±322 to 2080±199 (n=12). Fluorescence values were measured 150 seconds after adding 10 mM Ca^2+ and percent blockade was calculated as 1 minus FLTRPC3-FVector in the presence of Gd^3+ divided by FLTRPC3-FVector without blocker. […] Gd^3+ reduced peak fluorescence after 10 mM Ca^2+ addition in vector-transfected cells from 26444±2410 to 1316±60 and in LTRPC3-transfected cells from 37676±2425 to 6783±250 (see FIGS. 22C and D, respectively; n=12). […] Gd^3+ reduced peak Ca^2+ fluorescence in vector-transfected cells from 9327±466 to 453±15 and in LTRPC3-transfected cells from 14747±988 to 1975±79 (see FIGS. 22E and F, respectively; n=12).

A further assay concerns HEK 293 cells. As to the kind of experiment: Ca^2+ store depletion in LTRPC3-HA- and vector-transfected HEK 293 cells. The format is cell-based. Here is the method: as §1
The store-operated mechanism of LTRPC3-mediated Ca^2+ influx was tested further by passively depleting Ca^2+ stores with thapsigargin (TG), an inhibitor of microsomal Ca^2+ ATPases that pumps ions from the cytosol back into the stores. […] Following store depletion with TG, addition of Ca^2+ to the buffer induced a much larger Ca^2+ entry in LTRPC3 cells compared to the vector control cells.
Receptor-mediated Ca^2+ entry was also more pronounced in LTRPC3-HA-transfected cells. Carbachol (CCh) can activate an endogenous muscarinic receptor and trigger IP3 production, leading to store-depletion in HEK 293 cells. […]

For another assay, the system named is female recipients. The following applies: picogram quantities to the female vomeronasal organ; cited from earlier work.
A further assay concerns Human lung fibroblasts. Nature of the assay: human lung fibroblast growth assay with Alamar Blue. The format is cell-based. The following applies: 3 days in basal medium. Here is the method: Human lung fibroblasts are obtained from Clonetics (San Diego, Calif.) and maintained in growth media from Clonetics. Dermal microvascular endothelial cells are obtained from Cell Applications (San Diego, Calif.). For proliferation assays, the human lung fibroblasts and dermal microvascular endothelial cells can be cultured at 5,000 cells/well in a 96-well plate for one day in growth medium. The cells are then incubated for one day in 0.1% BSA basal medium. After replacing the medium with fresh 0.1% BSA medium, the cells are incubated with the test proteins for 3 days. Alamar Blue (Alamar Biosciences, Sacramento, Calif.) is added to each well to a final concentration of 10%. The cells are incubated for 4 hr. Cell viability is measured by reading in a CytoFluor fluorescence reader. For the PGE2 assays, the human lung fibroblasts are cultured at 5,000 cells/well in a 96-well plate for one day. […]

Assay [2] relates to nigral dopaminergic neurons. The following applies: gel foam implants in the striatum; cited from earlier work.
Where [3] appears, read: 100 μM, nominally Ca^2+-free medium, 10 mM Ca^2+ addition.

T1 sequence (Q9HCF6 with tags, fused parts or gaps isoform Q9HCF6-2 R1670Q): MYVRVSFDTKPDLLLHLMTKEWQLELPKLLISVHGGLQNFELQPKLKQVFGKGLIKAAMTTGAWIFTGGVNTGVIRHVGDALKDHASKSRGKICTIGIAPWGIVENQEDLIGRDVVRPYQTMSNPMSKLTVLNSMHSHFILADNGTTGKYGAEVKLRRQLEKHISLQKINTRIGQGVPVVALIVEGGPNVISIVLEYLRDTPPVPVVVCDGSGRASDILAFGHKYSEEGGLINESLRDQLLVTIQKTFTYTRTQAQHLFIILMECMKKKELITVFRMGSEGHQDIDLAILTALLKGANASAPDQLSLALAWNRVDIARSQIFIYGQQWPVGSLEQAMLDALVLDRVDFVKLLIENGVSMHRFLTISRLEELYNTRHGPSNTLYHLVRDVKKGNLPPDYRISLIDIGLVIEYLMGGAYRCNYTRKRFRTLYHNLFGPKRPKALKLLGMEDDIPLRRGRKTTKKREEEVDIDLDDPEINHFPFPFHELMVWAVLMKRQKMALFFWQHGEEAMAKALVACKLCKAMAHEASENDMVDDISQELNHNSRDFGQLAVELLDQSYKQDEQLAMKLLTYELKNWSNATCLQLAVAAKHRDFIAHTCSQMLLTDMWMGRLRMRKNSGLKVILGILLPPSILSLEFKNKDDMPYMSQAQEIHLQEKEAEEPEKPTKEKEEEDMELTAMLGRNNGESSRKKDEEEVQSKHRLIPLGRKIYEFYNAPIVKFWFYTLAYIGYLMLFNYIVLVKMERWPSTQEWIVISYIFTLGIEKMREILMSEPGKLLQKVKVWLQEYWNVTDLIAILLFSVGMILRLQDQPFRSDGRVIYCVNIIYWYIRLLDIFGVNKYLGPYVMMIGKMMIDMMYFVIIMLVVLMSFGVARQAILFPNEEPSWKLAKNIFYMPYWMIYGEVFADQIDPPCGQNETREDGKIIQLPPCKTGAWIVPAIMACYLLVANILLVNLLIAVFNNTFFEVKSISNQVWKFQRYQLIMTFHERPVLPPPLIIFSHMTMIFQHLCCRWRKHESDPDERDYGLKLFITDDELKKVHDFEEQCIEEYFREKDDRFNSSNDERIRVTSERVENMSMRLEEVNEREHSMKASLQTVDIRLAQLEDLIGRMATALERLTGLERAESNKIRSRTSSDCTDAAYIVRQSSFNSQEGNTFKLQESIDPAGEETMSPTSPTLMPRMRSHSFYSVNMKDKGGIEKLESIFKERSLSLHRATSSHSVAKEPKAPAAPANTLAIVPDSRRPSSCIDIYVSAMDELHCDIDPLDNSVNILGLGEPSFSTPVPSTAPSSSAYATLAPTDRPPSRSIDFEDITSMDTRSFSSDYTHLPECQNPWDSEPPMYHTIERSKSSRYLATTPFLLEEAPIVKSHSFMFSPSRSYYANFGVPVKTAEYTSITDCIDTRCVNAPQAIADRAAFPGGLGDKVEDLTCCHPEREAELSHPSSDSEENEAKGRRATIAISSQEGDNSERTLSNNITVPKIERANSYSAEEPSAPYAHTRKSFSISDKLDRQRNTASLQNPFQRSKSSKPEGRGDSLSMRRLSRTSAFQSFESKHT

As for `[Gd+3]` [Gd^3+, gadolinium (Gd^3+)], the “block of LTRPC3 Ca^2+ conductance/currents (in words)” value at LTRPC3 (100 μM for 10 min) is given as “partially inhibited”. Besides, the “effect on Tg and CCh induced LTRPC3 variant-mediated Ca^2+ entry (in words)” value on LTRPC3 (100 μM for 10 min, nominally Ca^2+-free media, 2 μM TG or 50 μM CCh, 10 mM Ca^2+) is “can be inhibited”. Moreover, the “fluorescence in the presence of blocker, LTRPC3-transfected cells” value at LTRPC3 (100 μM, 1 mM Ca^2+, 150 seconds after adding 10 mM Ca^2+, n=12) is given as 2080±199 fluorescence units. For the same molecule, the “inhibition of Ca^2+ entry (percent blockade)” value against LTRPC3 (100 μM, cells in 1 mM Ca^2+, induced by adding 10 mM Ca^2+, 150 seconds after addition) came out at 53%. For the same molecule, at LTRPC3 (setting [3]), the “inhibition of Ca^2+ entry after depletion of intracellular stores with carbachol” value was found to be 72% and the “inhibition of Ca^2+ entry after depletion of intracellular stores with thapsigargin” value stood at 51%. In addition, on LTRPC3 (100 μM, nominally Ca^2+-free medium, 10 mM Ca^2+ addition, n=12), the “peak Ca^2+ fluorescence in the presence of blocker after carbachol, LTRPC3-transfected cells” value was 1975±79. Also, the “peak fluorescence in the presence of blocker after thapsigargin, LTRPC3-transfected cells” value at LTRPC3 (100 μM, nominally Ca^2+-free medium, after 10 mM Ca^2+ addition, n=12) is reported as 6783±250. Besides, at LTRPC3 (1 mM Ca^2+), the “block of LTRPC3 Ca^2+ currents” value is recorded as 39%. Also, the “fluorescence in the presence of blocker, vector-transfected cells” value in assay [1] (1 mM Ca^2+, 150 seconds after adding 10 mM Ca^2+, n=12) is given as −58±8 fluorescence units. Moreover, the “effect on minimal Ca^2+ influx in vector-transfected cells (in words)” value in assay [1] (1 mM Ca^2+, addition of 10 mM Ca^2+) is “strongly inhibited”. Further, in assay [1] (nominally Ca^2+-free medium, 10 mM Ca^2+ addition, n=12), the “peak Ca^2+ fluorescence in the presence of blocker after carbachol, vector-transfected cells” value is listed as 453±15. For the same molecule, the “peak fluorescence in the presence of blocker after thapsigargin, vector-transfected cells” value in assay [1] (nominally Ca^2+-free medium, after 10 mM Ca^2+ addition, n=12) is listed as 1316±60.
In the case of `C/C=C(/C)C(=O)O[C@H]1C(C)=C2[C@H]([C@@H]1OC(=O)CCCCCCC)[C@@](C)(OC(C)=O)C[C@H](OC(=O)CCC)[C@@]1(O)[C@H]2OC(=O)[C@@]1(C)O` [thapsigargin], in the assay with HEK 293 cells (2 μM, LTRPC3-HA- and vector-transfected cells), the “depletion of Ca^2+ stores (in words)” value is reported as “equivalently depleted Ca^2+ stores”.
`C[N+](C)(C)CCOC(N)=O` [CCh, Carbachol]: in the assay on HEK 293 cells (50 μM, LTRPC3- and vector-transfected cells), the “intracellular Ca^2+ response (in words)” value was “transient and rapid intracellular Ca^2+ increase”.
In the case of `[La+3]` [La^3+, lanthanum (La^3+)], the “block of LTRPC3 Ca^2+ conductance/currents (in words)” value at LTRPC3 (100 μM for 10 min) is on record as “inhibited; also recorded: more potent”. Moreover, the “block of LTRPC3 Ca^2+ currents” value on LTRPC3 (1 mM Ca^2+) is recorded as 67%.
`C[C@@]12C=CC[C@H]1[C@@H]1CCC3=CC(=O)CC[C@]3(C)[C@H]1CC2` [androstadienone]: the “nervousness, tension and other negative feelings” value in the assay on female recipients is reported as “significant reduction”.
As to “FGF-2: FGF-2 (basic FGF), growth factor used as comparator”, the “concentration at which stimulation of fibroblast growth should be shown” value in the assay with Human lung fibroblasts lay in the range of 10 to 2500 ng/mL. Besides, the “protection of nigral dopaminergic neurons from the toxicity associated with MPTP exposure” value in assay [2] is on record as “near complete protection”.
